PubChem BioAssay (NCI)
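GI50 = concentration required for 50% inhibition of growth. TGI marks complete inhibition of growth.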

Columns and labels:
Experiment in all cases: NCI tumour cell line growth inhibition, 384-well format
[1] = system: 786-0 renal
[2] = system: A498 renal
[3] = system: A549 NSCLC
[4] = system: ACHN renal
[5] = system: BT-549 breast
[6] = system: CAKI-1 renal
[7] = system: CCRF-CEM leukemia
[8] = system: DU-145 prostate
[9] = system: EKVX NSCLC
[10] = system: HCC-2998 colon
[11] = system: HCT-116 colon
[12] = system: HCT-15 colon
[13] = system: HL-60(TB) leukemia
[14] = system: HOP-62 NSCLC
[15] = system: HOP-92 NSCLC
[16] = system: HS 578T breast
[17] = system: HT29 colon
[18] = system: IGROV1 ovarian
[19] = system: K-562 leukemia
[20] = system: KM12 colon
[21] = system: LOX IMVI melanoma
[22] = system: M14 melanoma
[23] = system: MALME-3M melanoma
[24] = system: MCF7 breast
[25] = system: MDA-MB-231 breast
[26] = system: MDA-MB-435 melanoma
[27] = system: MDA-MB-468 breast
[28] = system: MOLT-4 leukemia
[29] = system: NCI-H226 lung
[30] = system: NCI-H23 lung
[31] = system: NCI-H322M lung
[32] = system: NCI-H460 NSCLC
[33] = system: NCI-H522 lung
[34] = system: NCI/ADR-RES ovarian
[35] = system: OVCAR-3 ovarian
[36] = system: OVCAR-4 ovarian
[37] = system: OVCAR-5 ovarian
[38] = system: OVCAR-8 ovarian
[39] = system: PC-3 prostate
[40] = system: RPMI-8226 leukemia
[41] = system: RXF 393 renal
[42] = system: SF-268 CNS
[43] = system: SF-295 CNS
[44] = system: SF-539 CNS
[45] = system: SK-MEL-28 melanoma
[46] = system: SK-MEL-5 melanoma
[47] = system: SK-OV-3 ovarian
[48] = system: SN12C renal
[49] = system: SNB-19 CNS
[50] = system: SNB-75 CNS
[51] = system: SW-620 colon
[52] = system: T-47D breast
[53] = system: TK-10 renal
[54] = system: U251 glioblastoma
[55] = system: UACC-257 melanoma
[56] = system: UACC-62 melanoma
[57] = system: UO-31 renal

O=C(NCCN1CCOCC1)Nc1nc2ccc(Sc3nnc4ccc(-c5ccc(F)cc5)nn34)cc2s1 was tested, and the GI50 [1] was 1.61 µM, the TGI [1] was 3.83 µM and the GI50 [2] was 6.7 µM. For the same compound, the TGI [2] was over 100 µM, the GI50 [3] was over 100 µM and the TGI [3] was over 100 µM. It also gave a GI50 [4] of over 100 µM, a TGI [4] of over 100 µM and a GI50 [5] of 2.85 µM. It also gave a TGI [5] of over 100 µM, a GI50 [6] of 22.6 µM and a TGI [6] of over 100 µM. It also gave a GI50 [7] of 4.41 µM, a TGI [7] of over 100 µM and a GI50 [8] of over 100 µM. For the same compound, the TGI [8] was over 100 µM, the GI50 [9] was 84 µM and the TGI [9] was over 100 µM. It also gave a GI50 [10] of 5.29 µM, a TGI [10] of 34.7 µM and a GI50 [11] of 77 µM. It also gave a TGI [11] of over 100 µM, a GI50 [12] of 70.6 µM and a TGI [12] of over 100 µM. For the same compound, the GI50 [13] was 4.25 µM, the TGI [13] was 8.46 µM and the GI50 [14] was 7.49 µM. For the same compound, the TGI [14] was over 100 µM, the GI50 [15] was 5.22 µM and the TGI [15] was over 100 µM. For the same compound, the GI50 [16] was 2.31 µM, the TGI [16] was 5.35 µM and the GI50 [17] was 4.93 µM. It also gave a TGI [17] of 53.3 µM, a GI50 [18] of over 100 µM and a TGI [18] of over 100 µM. For the same compound, the GI50 [19] was 3.98 µM, the TGI [19] was 21.2 µM and the GI50 [20] was 0.452 µM. For the same compound, the TGI [20] was over 100 µM, the GI50 [21] was 20.7 µM and the TGI [21] was over 100 µM. It also gave a GI50 [22] of over 100 µM, a TGI [22] of over 100 µM and a GI50 [23] of 3.77 µM. The TGI [23] was 13.3 µM, the GI50 [24] was 5.39 µM and the TGI [24] was over 100 µM. The GI50 [25] was 3.73 µM, the TGI [25] was over 100 µM and the GI50 [26] was over 100 µM. For the same compound, the TGI [26] was over 100 µM, the GI50 [27] was 2.93 µM and the TGI [27] was 8.45 µM. The GI50 [28] was 1.74 µM, the TGI [28] was 3.53 µM and the GI50 [29] was 3.04 µM. For the same compound, the TGI [29] was over 100 µM, the GI50 [30] was 13 µM and the TGI [30] was over 100 µM. It also gave a GI50 [31] of 42.9 µM, a TGI [31] of over 100 µM and a GI50 [32] of 5 µM. It also gave a TGI [32] of over 100 µM, a GI50 [33] of 17.7 µM and a TGI [33] of over 100 µM. The GI50 [34] was over 100 µM, the TGI [34] was over 100 µM and the GI50 [35] was over 100 µM. It also gave a TGI [35] of over 100 µM, a GI50 [36] of over 100 µM and a TGI [36] of over 100 µM. It also gave a GI50 [37] of over 100 µM, a TGI [37] of over 100 µM and a GI50 [38] of over 100 µM. For the same compound, the TGI [38] was over 100 µM, the GI50 [39] was over 100 µM and the TGI [39] was over 100 µM. For the same compound, the GI50 [40] was 1.18 µM, the TGI [40] was 2.58 µM and the GI50 [41] was 0.606 µM. For the same compound, the TGI [41] was 2.18 µM, the GI50 [42] was 2.71 µM and the TGI [42] was 7 µM. For the same compound, the GI50 [43] was 2.34 µM, the TGI [43] was 14.3 µM and the GI50 [44] was 4.86 µM. For the same compound, the TGI [44] was over 100 µM, the GI50 [45] was 3 µM and the TGI [45] was 7.53 µM. The GI50 [46] was 3.52 µM, the TGI [46] was 47 µM and the GI50 [47] was over 100 µM. For the same compound, the TGI [47] was over 100 µM, the GI50 [48] was over 100 µM and the TGI [48] was over 100 µM. The GI50 [49] was 5.14 µM, the TGI [49] was over 100 µM and the GI50 [50] was 3.2 µM. It also gave a TGI [50] of over 100 µM, a GI50 [51] of over 100 µM and a TGI [51] of over 100 µM. The GI50 [52] was 3.1 µM, the TGI [52] was 32.5 µM and the GI50 [53] was over 100 µM. The TGI [53] was over 100 µM, the GI50 [54] was 7.1 µM and the TGI [54] was 60.7 µM. The GI50 [55] was 4.3 µM, the TGI [55] was over 100 µM and the GI50 [56] was 4.58 µM. For the same compound, the TGI [56] was 42.3 µM, the GI50 [57] was over 100 µM and the TGI [57] was over 100 µM.

Compound CS(=O)(=O)OCCCCOS(C)(=O)=O has a GI50 [13] of 17.7 µM, a GI50 [28] of 9.66 µM and a TGI [28] of 21.8 µM.
